“And” between values parts separate entries of the source, which are not always exact repeats. Equal entries are not always repeated.
Tests used:
[1] = system: glomerulonephritis induced by a 30 microgram intravenous injection of clone a84 (IgG2a); assay: a84 antibody-induced glomerulonephritis animal model, urinary protein levels; format: in vivo, Rat, WKY; details: for % Inhibition of Total Urinary Protein Levels (mg), individual animal / % Inhibition of Total Urinary Protein Levels (mg), Mean: 30 ug a84 antibody iv; for % Inhibition of Total Urinary Protein Levels (mg), Mean: urine day 6-7 (16 h), male WKY rats, group mean
Source text: Study Objective: Glomerulonephritis is a complex disease involving cytokines, cell infiltration, cell proliferation, and rapid deterioration of renal function. This animal model will provide a relatively short term and quantitative measurement of glomerulonephritis. This study was designed to determine if a compound of Formula I will reduce glomerulonephritis induced by a 30 microgram intravenous injection of clone a84 (IgG2a). This monoclonal antibody induces disease by binding to a glomerular basement membrane protein. Disease progression is monitored in two ways in this model. First, the levels of protein in excreted urine are assessed. This readout serves as a rapid marker of renal diseased. The second mechanism by which disease is monitored is by examining the substructure of the kidney via histological examination.
Aim of Study: Glomerulonephritis is a complex disease involving cytokines, cell infiltration, cell proliferation, and rapid deterioration of renal function. This animal model provided a relatively short term and quantitative measurement of glomerulonephritis. This study was designed to determine if the compound of Formula I as hydrochloride salt will reduce glomerulonephritis induced by a 30 microgram intravenous injection of clone a84 (IgG2a).
Species, Strain, Supplier: Rat, WKY, Charles River
Duration and Frequency of Treatment: Animals in groups B through F and H through L received a 30 ug iv injection of a84 antibody on day 0 approximately 1 hour post dose.
Route of Administration: Oral gavage
Duration and Frequency of Treatment: Each animal in groups C, D, and E received an A.M. and P.M. dose approximately 8 hours apart from day 0 through day 6. Each animal in groups I, J, and K received an A.M. and P.M. dose approximately 8 hours apart from day 0 through day 3. Dosing was initiated on day 0 approximately 1 hour prior to a84 antibody injection.
Route of Administration: intraperitoneal (ip)
Duration and Frequency of Treatment: Each animal in groups F and L received an A.M. dose on day 0 approximately 1 hour prior to a84 antibody injection and a PM dose on day 3.
Kit: Rat Urinary Protein Assay Kit
Study Parameters Rat urinary proteins was measured over approximately a 16 hour period from day 6 to day 7. The kidneys were harvested for histological evaluation and for possible mRNA isolation.
Evaluation Method: Rat urinary protein levels was determined by the kit described in section 2.3.
Chronology of Examinations and/or Sampling: 1) Rats were placed into six groups of eight, six groups of 4, and one group of 3 based on compound and dose administered: Group A Vehicle (0.5% methyl cellulose containing 0.2% tween 80)+IV saline injection n=8, Group B Vehicle (0.5% methyl cellulose containing 0.2% tween 80)+IV a84 antibody injection n=8, Group C Compound of Formula I as hydrochloride salt 3.0 mg/kg+IV a84 antibody injection n=8, Group D SAR397769A 10 mg/kg+IV a84 antibody injection n=8, Group E Compound of Formula I as hydrochloride salt 30 mg/kg+IV a84 antibody injection n=8, Group F Enbrel 5.0 mg/kg+IV a84 antibody injection, Group G Vehicle (0.5% methyl cellulose containing 0.2% tween 80)+IV saline injection n=4, Group H Vehicle (0.5% methyl cellulose containing 0.2% tween 80)+IV a84 antibody injection n=4, Group I Compound of Formula I as hydrochloride salt 3.0 mg/kg+IV a84 antibody injection n=4, Group J SAR397769A 10 mg/kg+IV a84 antibody injection n=4, Group K Compound of Formula I as hydrochloride salt 30 mg/kg+IV a84 antibody injection n=4, Group L Enbrel 5.0 mg/kg+IV a84 antibody injection n=4, and Group M Naïve n=3. 2) On day 0, rats were dosed one hour prior to a84 antibody injection. Animals in groups A through E, and G through K were dosed orally. Dosing continued twice daily in groups A through E from day 0 to day 6 with approximately 8 hours between doses. Dosing continued twice daily in groups G through K from day 0 to day 3 with approximately 8 hours between doses. […]

Syk kinase = Syk kinase (Homo sapiens, UniProt P43405); details: as described in WO2008/033798; cited from earlier work

| Compound | % Inhibition of Total Urinary Protein Levels (mg), individual animal ([1]; 3.0 mg/kg oral gavage twice daily day 0-6, single animals 1-8) | % Inhibition of Total Urinary Protein Levels (mg), Mean ([1]; 3.0 mg/kg oral gavage twice daily day 0-6) [%] | % Inhibition of Total Urinary Protein Levels (mg), Mean ([1]; 3.0 mg/kg oral gavage twice daily day 0-6, listed as compound of Formula I) [%] | % Inhibition of Total Urinary Protein Levels (mg), individual animal ([1]; 10 mg/kg oral gavage twice daily day 0-6, single animals 1-8) | % Inhibition of Total Urinary Protein Levels (mg), Mean ([1]; 10 mg/kg oral gavage twice daily day 0-6) [%] | % Inhibition of Total Urinary Protein Levels (mg), Mean ([1]; 10 mg/kg oral gavage twice daily day 0-6, listed as compound of Formula I) [%] | % Inhibition of Total Urinary Protein Levels (mg), individual animal ([1]; 30 mg/kg oral gavage twice daily day 0-6, single animals 1-8) | % Inhibition of Total Urinary Protein Levels (mg), Mean ([1]; 30 mg/kg oral gavage twice daily day 0-6) [%] | % Inhibition of Total Urinary Protein Levels (mg), Mean ([1]; 30 mg/kg oral gavage twice daily day 0-6, listed as compound of Formula I) [%] | reduction of urinary protein levels compared with positive control (Enbrel) ([1]; 30 mg/kg versus Enbrel 5.0 mg/kg) | Syk kinase inhibition (Syk kinase) | % Inhibition of Total Urinary Protein Levels (mg), individual animal ([1]; 5.0 mg/kg ip on day 0 and day 3, single animals 1-7) | % Inhibition of Total Urinary Protein Levels (mg), Mean ([1]; 5.0 mg/kg ip on day 0 and day 3) [%] |
| --- | --- | --- | --- | --- | --- | --- | --- | --- | --- | --- | --- | --- | --- |
| CCc1c(-c2ccc(C(C)(C)O)cc2)[nH]c2nccnc12 [Exp Cmpd, 2-[4-(7-Ethyl-5H-pyrrolo [2,3-b]pyrazin-6-yl)-phenyl]-propan-2-ol] | −0.60% and 9.50% and −5.97% and 54.11% and 43.80% and 42.33% and 65.58% and −3.63% | 25.64 | 25 | 46.17% and 64.93% and 71.77% and 76.96% and 81.22% and 43.56% and 35.61% and 11.63% | 53.98 | 53 | 84.66% and 85.65% and 79.73% and 86.92% and 88.28% and 84.82% and 81.26% and 92.32% | 85.46 | 85 | significantly better than the positive control | Syk kinase inhibitor |  |  |
| Enbrel [reference compound] |  |  |  |  |  |  |  |  |  |  |  | 50.26% and 33.67% and 61.10% and 46.54% and 58.91% and 63.92% and 22.67% | 48.15 |
